Source: patent publication US10654829B2, “Crystalline forms and compositions of CFTR modulators” (Vertex Pharmaceuticals Incorporated, priority 2017, dated 2020)
Entries after “also recorded” stand apart in the source; their conditions may differ. Where two headings read alike, the source gives them in different places.

Assays:
[1] = molecular target: T1, F508del-CFTR (Homo sapiens, UniProt P13569, DEL508-508); assay: Membrane potential optical (FLIPR) assay for F508del-CFTR modulators; type: cell-based; parameters: expressed in transfected cells
T1 sequence (P13569 with tags, fused parts or gaps DEL508-508): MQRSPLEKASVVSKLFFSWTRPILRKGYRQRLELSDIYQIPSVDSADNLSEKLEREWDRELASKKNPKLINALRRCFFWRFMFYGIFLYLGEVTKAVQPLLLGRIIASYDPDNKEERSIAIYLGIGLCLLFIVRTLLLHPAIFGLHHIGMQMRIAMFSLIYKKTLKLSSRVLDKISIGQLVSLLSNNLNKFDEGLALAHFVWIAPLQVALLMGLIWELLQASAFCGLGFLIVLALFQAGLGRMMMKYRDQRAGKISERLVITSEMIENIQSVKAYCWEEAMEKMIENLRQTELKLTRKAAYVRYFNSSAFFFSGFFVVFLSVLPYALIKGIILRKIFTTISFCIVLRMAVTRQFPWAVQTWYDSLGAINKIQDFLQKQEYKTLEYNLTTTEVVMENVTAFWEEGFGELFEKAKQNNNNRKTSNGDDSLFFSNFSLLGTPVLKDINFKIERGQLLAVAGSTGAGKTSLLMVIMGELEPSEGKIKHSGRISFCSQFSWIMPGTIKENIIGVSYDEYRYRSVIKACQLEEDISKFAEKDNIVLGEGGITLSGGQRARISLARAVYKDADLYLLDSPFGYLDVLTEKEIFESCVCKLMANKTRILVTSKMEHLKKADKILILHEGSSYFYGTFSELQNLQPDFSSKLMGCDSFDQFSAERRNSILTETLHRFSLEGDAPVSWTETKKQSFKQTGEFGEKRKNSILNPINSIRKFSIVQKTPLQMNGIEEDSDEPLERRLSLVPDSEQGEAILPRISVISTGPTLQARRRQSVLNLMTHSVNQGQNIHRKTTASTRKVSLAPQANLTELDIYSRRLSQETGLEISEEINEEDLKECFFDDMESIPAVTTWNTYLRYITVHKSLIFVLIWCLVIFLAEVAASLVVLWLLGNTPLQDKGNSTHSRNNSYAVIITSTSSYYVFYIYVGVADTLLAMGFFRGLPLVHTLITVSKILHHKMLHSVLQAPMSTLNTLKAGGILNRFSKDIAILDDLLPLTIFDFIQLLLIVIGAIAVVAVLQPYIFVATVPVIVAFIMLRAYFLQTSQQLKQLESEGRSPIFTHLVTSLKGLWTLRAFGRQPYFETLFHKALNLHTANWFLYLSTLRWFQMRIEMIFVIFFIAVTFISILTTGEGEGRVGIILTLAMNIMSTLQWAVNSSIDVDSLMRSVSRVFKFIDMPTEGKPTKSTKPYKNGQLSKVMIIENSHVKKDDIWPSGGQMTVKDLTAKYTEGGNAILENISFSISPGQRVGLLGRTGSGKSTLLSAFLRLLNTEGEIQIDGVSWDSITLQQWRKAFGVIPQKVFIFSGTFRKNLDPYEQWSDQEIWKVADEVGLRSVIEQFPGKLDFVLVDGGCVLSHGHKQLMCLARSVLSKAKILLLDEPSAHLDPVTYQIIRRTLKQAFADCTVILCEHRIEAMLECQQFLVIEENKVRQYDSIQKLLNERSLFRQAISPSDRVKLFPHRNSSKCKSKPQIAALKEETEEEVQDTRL
Text: The assay utilizes fluorescent voltage sensing dyes to measure changes in membrane potential using a fluorescent plate reader (e.g., FLIPR III, Molecular Devices, Inc.) as a readout for increase in functional F508del in NIH 3T3 cells. The driving force for the response is the creation of a chloride ion gradient in conjunction with channel activation and concurrent with compound treatment by a single liquid addition step after the cells have previously been loaded with a voltage sensing dye.
To identify modulators of F508del, a fluorescence based HTS assay format was developed. This HTS assay utilizes fluorescent voltage sensing dyes to measure changes in membrane potential on the FLIPR III as a measurement for increase in gating (conductance) of F508del NIH 3T3 cells. The driving force for the response is the creation of a chloride ion gradient in conjunction with channel activation and concurrent with compound treatment by a single liquid addition step after the cells have previously been loaded with a voltage sensing dye.
(in mM) NaCl 160, KCl 4.5, CaCl2) 2, MgCl2 1, HEPES 10, pH 7.4 with NaOH, Glucose 10.
Chloride salts in Bath Solution #1 (above) are substituted with gluconate salts.
NIH3T3 mouse fibroblasts stably expressing F508del are used for optical measurements of membrane potential. The cells are maintained at 37° C. in 5% CO2 and 90% humidity in Dulbecco's modified Eagle's medium supplemented with 2 mM glutamine, 10% fetal bovine serum, 1×NEAA, β-ME, 1× pen/strep, and 25 mM HEPES in 175 cm^2 culture flasks. For all optical assays, the cells were seeded at 12,000 cells/well in 384-well matrigel-coated plates and cultured for 18-24 hrs at 37° C. for the potentiator assay. For the correction assays, the cells are cultured at 37° C. with and without compounds for 18-24 hours.

[2] = pKa determination; type: physicochemical
[3] = molecular target: T1, F508del-CFTR; assay: F508del-CFTR processing and trafficking in vitro (170 to 180 kDa band); type: cell-based; parameters: CF-HBE were isolated from patients homozygous for F508del; endogenous in cells; host or cells: primary CF human bronchial epithelial cells (F508del/F508del-HBE)
Text: Processing and trafficking of F508del-CFTR was directly monitored by the appearance of a 170 to 180 kDa band.

[4] = molecular target: T1, F508del-CFTR; assay: Ussing chamber assay, chloride transport in HBE cells; type: cell-based; parameters: CF-HBE were isolated from patients homozygous for F508del; endogenous in cells; host or cells: primary CF human bronchial epithelial cells (F508del/F508del-HBE)
Description: Using chamber experiments were performed on polarized airway epithelial cells expressing F508del to further characterize the F508del modulators identified in the optical assays. Non-CF and CF airway epithelia were isolated from bronchial tissue, cultured as previously described (Galietta, L. J. V., Lantero, S., Gazzolo, A., Sacco, O., Romano, L., Rossi, G. A., & Zegarra-Moran, O. (1998) In Vitro Cell. Dev. Biol. 34, 478-481), and plated onto Costar® Snapwell™ filters that were precoated with NIH3T3-conditioned media. After four days the apical media was removed and the cells were grown at an air liquid interface for >14 days prior to use. […] CF-HBE were isolated from patients homozygous for F508del or compound heterozygous for F508del with a different disease causing mutation on the other allele.
HBE grown on Costar® Snapwell™ cell culture inserts were mounted in an Using chamber (Physiologic Instruments, Inc., San Diego, Calif.), and the transepithelial resistance and short-circuit current in the presence of a basolateral to apical Cl^− gradient (ISC) were measured using a voltage-clamp system (Department of Bioengineering, University of Iowa, IA). Briefly, HBE were examined under voltage-clamp recording conditions (Vhold=0 mV) at 37° C. The basolateral solution contained (in mM) 145 NaCl, 0.83 K2HPO4, 3.3 KH2PO4, 1.2 MgCl2, 1.2 CaCl2, 10 Glucose, 10 HEPES (pH adjusted to 7.35 with NaOH) and the apical solution contained (in mM) 145 NaGluconate, 1.2 MgCl2, 1.2 CaCl2), 10 glucose, 10 HEPES (pH adjusted to 7.35 with NaOH).
Typical protocol utilized a basolateral to apical membrane Cl^− concentration gradient. To set up this gradient, normal ringers was used on the basolateral membrane, whereas apical NaCl was replaced by equimolar sodium gluconate (titrated to pH 7.4 with NaOH) to give a large Cl^− concentration gradient across the epithelium. Modulators were added either to the basolateral side […] to assay or to the apical side during the assay. Forskolin (10 μM) was added to the apical side during the assay to stimulate CFTR-mediated Cl^− transport.

| EC50 ([1]; CFTR Activity, Table 120, read-out: CFTRdF508 EC50) | EC50 ([1]; F508del NIH 3T3 cells, membrane potential HTS assay, read-out: EC50) | Emax ([1]; NIH3T3, F508del NIH 3T3 cells, relative to Compound II, read-out: % Efficacy relative to Compound II) | pKa [2] | increase in steady-state levels, fold of untreated levels ([3]; F508del/F508del-HBE cells, 16 to 24 hours, 1 μM Compound I alone) | chloride transport ([4]; F508del/F508del-HBE cells) | effect on chloride transport together with Compound II ([4]; F508del/F508del-HBE cells) | potentiation of F508del-CFTR delivered to the cell surface by Compound I alone or in combination with Compound II ([4]; HBE cells) | Structure (SMILES) | processing and trafficking of F508del-CFTR ([3]; in vitro) |
| --- | --- | --- | --- | --- | --- | --- | --- | --- | --- |
| < 100 nM | < 3000 nM | ≥ 100% | 4.95 ± 0.06 | 6.5 fold | enhanced chloride transport | additive to the effect of Compound II | – | C[C@@H]1CN(c2nc(-n3ccc(OCCC4(C(F)(F)F)CC4)n3)ccc2C(=O)NS(=O)(=O)c2ccccc2)C(C)(C)C1 [Compound I, N-(benzenesulfonyl)-6-[3-[2-[1-(trifluoromethyl)cyclopropyl]ethoxy]pyrazol-1-yl]-2-[(4S)-2,2,4-trimethylpyrrolidin-1-yl]pyridine-3-carboxamide] | improved the processing and trafficking of F508del-CFTR; also recorded: facilitates the processing and trafficking of F508del-CFTR |
| – | – | – | – | – | – | – | potentiated | CC(C)(C)c1cc(C(C)(C)C)c(NC(=O)c2c[nH]c3ccccc3c2=O)cc1O [Compound III, N-(5-hydroxy-2,4-di-tert-butyl-phenyl)-4-oxo-1H-quinoline-3-carboxamide, reference compound] | – |
